Source: BindingDB's records for doi:10.3109/14756366.2011.604851 (Shandong University, 2012)

How the values were obtained:
[1] = biological target: T1, Gag-Pol polyprotein (Human immunodeficiency virus type 1 group M subtype B (isolate HXB2), UniProt P04585); assay: 3'-P Inhibitory Assay
Protocol: Cleavage of a dinucleotide from each 3'-end of viral cDNA. All biological assays were performed essentially as previously described [Dayam et al., J. Med. Chem., 51:1136-1144].

[2] = biological target: T1, Gag-Pol polyprotein; assay: ST Inhibitory Assay
Protocol: Insertion of two newly processed 3'-viral DNA ends into the host-cell chromosome. All biological assays were performed essentially as previously described [Dayam et al., J. Med. Chem., 51:1136-1144].

Structure (SMILES)	IC50 [1]	IC50 [2]
CC(=O)Oc1ccc(/C=C/C(=O)Nc2ccc(S(=O)(=O)Nc3ccc(Cl)c(Cl)c3)cc2)cc1OC(C)=O [(E)-3-(3,4-Diacetoxyphenyl)-N-(4-(3,4-Dichlorophenylsulfamoyl)phenyl)acrylamide (10h)]	75 µM	7 µM
CC(=O)Oc1ccc(/C=C/C(=O)Nc2ccc(S(=O)(=O)Nc3ccc(F)c(F)c3)cc2)cc1OC(C)=O [(E)-3-(3,4-Diacetoxyphenyl)-N-(4-(3,4-Difluorophenylsulfamoyl)phenyl)acrylamide (10b)]	60 µM	11 µM
CC(=O)Oc1ccc(/C=C/C(=O)Nc2ccc(S(=O)(=O)Nc3cc(C)cc(C)c3)cc2)cc1OC(C)=O [(E)-3-(3,4-Diacetoxyphenyl)-N-(4-(3,5-Dimethylphenylsulfamoyl)phenyl)acrylamide (10k)]	80 µM	16 µM
CC(=O)Oc1ccc(/C=C/C(=O)Nc2ccc(S(=O)(=O)Nc3cccc(Cl)c3F)cc2)cc1OC(C)=O [(E)-3-(3,4-Diacetoxyphenyl)-N-(4-(3-chloro-2-fluorophenylsulfamoyl)phenyl)acrylamide (10l)]	50 µM	13 µM
O=C(/C=C/c1ccc(O)c(O)c1)Nc1ccc(S(=O)(=O)Nc2ccccc2Br)cc1 [(E)-3-(3,4-Dihydroxyphenyl)-N-(4-(2-Bromophenylsulfamoyl)phenyl)acrylamide (11g)]	11 µM	9 µM
O=C(/C=C/c1ccc(O)c(O)c1)Nc1ccc(S(=O)(=O)Nc2ccc(Cl)c(Cl)c2)cc1 [(E)-3-(3,4-Dihydroxyphenyl)-N-(4-(3,4-Dichlorophenylsulfamoyl)phenyl)acrylamide (11h)]	17 µM	6 µM
O=C(/C=C/c1ccc(O)c(O)c1)Nc1ccc(S(=O)(=O)Nc2ccc(F)c(F)c2)cc1 [(E)-3-(3,4-Dihydroxyphenyl)-N-(4-(3,4-Difluorophenylsulfamoyl)phenyl)acrylamide (11b)]	11 µM	6 µM
Cc1cc(C)cc(NS(=O)(=O)c2ccc(NC(=O)/C=C/c3ccc(O)c(O)c3)cc2)c1 [(E)-3-(3,4-Dihydroxyphenyl)-N-(4-(3,5-Dimethylphenylsulfamoyl)phenyl)acrylamide (11k)]	5 µM	4 µM
O=C(/C=C/c1ccc(O)c(O)c1)Nc1ccc(S(=O)(=O)Nc2cccc(Br)c2)cc1 [(E)-3-(3,4-Dihydroxyphenyl)-N-(4-(3-Bromophenylsulfamoyl)phenyl)acrylamide (11f)]	49 µM	22 µM
O=C(/C=C/c1ccc(O)c(O)c1)Nc1ccc(S(=O)(=O)Nc2ccc(F)c(Br)c2)cc1 [(E)-3-(3,4-Dihydroxyphenyl)-N-(4-(3-bromo-4-fluorophenylsulfamoyl)phenyl)acrylamide (11u)]	8 µM	4 µM
O=C(/C=C/c1ccc(O)c(O)c1)Nc1ccc(S(=O)(=O)Nc2cccc(Cl)c2F)cc1 [(E)-3-(3,4-Dihydroxyphenyl)-N-(4-(3-chloro-2-fluorophenylsulfamoyl)phenyl)acrylamide (11l)]	22 µM	14 µM
O=C(/C=C/c1ccc(O)c(O)c1)Nc1ccc(S(=O)(=O)Nc2ccc(F)c(Cl)c2)cc1 [(E)-3-(3,4-Dihydroxyphenyl)-N-(4-(3-chloro-4-fluorophenylsulfamoyl)phenyl)acrylamide (11v)]	8 µM	4 µM
O=C(/C=C/c1ccc(O)c(O)c1)Nc1ccc(S(=O)(=O)Nc2ccc(Br)cc2)cc1 [(E)-3-(3,4-Dihydroxyphenyl)-N-(4-(4-Bromophenylsulfamoyl)phenyl)acrylamide (11e)]	35 µM	8 µM
CCCCc1ccc(NS(=O)(=O)c2ccc(NC(=O)/C=C/c3ccc(O)c(O)c3)cc2)cc1 [(E)-3-(3,4-Dihydroxyphenyl)-N-(4-(4-Butylphenylsulfamoyl)phenyl)acrylamide (11i)]	25 µM	7 µM
CCOc1ccc(NS(=O)(=O)c2ccc(NC(=O)/C=C/c3ccc(O)c(O)c3)cc2)cc1 [(E)-3-(3,4-Dihydroxyphenyl)-N-(4-(4-Ethoxylphenylsulfamoyl)phenyl)acrylamide (11j)]	35 µM	9 µM
O=C(/C=C/c1ccc(O)c(O)c1)Nc1ccc(S(=O)(=O)NCc2ccc(F)cc2)cc1 [(E)-3-(3,4-Dihydroxyphenyl)-N-(4-(4-Fluorobenzylsulfamoyl)phenyl)acrylamide (11d)]	24 µM	9 µM
O=C(/C=C/c1ccc(O)c(O)c1)Nc1ccc(S(=O)(=O)NCCc2ccc(F)cc2)cc1 [(E)-3-(3,4-Dihydroxyphenyl)-N-(4-(4-Fluorophenethylsulfamoyl)phenyl)acrylamide (11t)]	14 µM	10 µM
O=C(/C=C/c1ccc(O)c(O)c1)Nc1ccc(S(=O)(=O)Nc2ccc(F)cc2)cc1 [(E)-3-(3,4-Dihydroxyphenyl)-N-(4-(4-Fluorophenylsulfamoyl)phenyl)acrylamide (11a)]	8 µM	5 µM
O=C(/C=C/c1ccc(O)c(O)c1)Nc1ccc(S(=O)(=O)Nc2ccccc2)cc1 [(E)-3-(3,4-Dihydroxyphenyl)-N-(4-phenylsulfamoylphenyl)acrylamide (11m)]	16 µM	12 µM
CC(=O)Oc1cc(C(=O)Nc2ccc(S(=O)(=O)Nc3ccccc3Br)cc2)cc(OC(C)=O)c1OC(C)=O [N-(4-(2-Bromophenylsulfamoyl)phenyl)-3,4,5-triacetoxybenzamide (8g)]	12 µM	3 µM

Structure (SMILES)	IC50 [1]	IC50 [2]
O=C(Nc1ccc(S(=O)(=O)Nc2ccccc2Br)cc1)c1cc(O)c(O)c(O)c1 [N-(4-(2-Bromophenylsulfamoyl)phenyl)galloylamide (9g)]	5 µM	1.4 µM
CC(=O)Oc1cc(C(=O)Nc2ccc(S(=O)(=O)Nc3ccccc3C)cc2)cc(OC(C)=O)c1OC(C)=O [N-(4-(2-Methylphenylsulfamoyl)phenyl)-3,4,5-triacetoxybenzamide (8s)]	> 10 µM	1.6 µM
Cc1ccccc1NS(=O)(=O)c1ccc(NC(=O)c2cc(O)c(O)c(O)c2)cc1 [N-(4-(2-Methylphenylsulfamoyl)phenyl)galloylamide (9s)]	7 µM	2 µM
O=C(Nc1ccc(S(=O)(=O)Nc2ccc(Cl)c(Cl)c2)cc1)c1cc(O)c(O)c(O)c1 [N-(4-(3,4-Dichlorophenylsulfamoyl)phenyl)galloylamide (9h)]	5 µM	1.7 µM
Cc1ccc(NS(=O)(=O)c2ccc(NC(=O)c3cc(O)c(O)c(O)c3)cc2)cc1C [N-(4-(3,4-Dimethylphenylsulfamoyl)phenyl)galloylamide (9p)]	8 µM	8 µM
Cc1cc(C)cc(NS(=O)(=O)c2ccc(NC(=O)c3cc(O)c(O)c(O)c3)cc2)c1 [N-(4-(3,5-Dimethylphenylsulfamoyl)phenyl)galloylamide (9k)]	8 µM	2.5 µM
O=C(Nc1ccc(S(=O)(=O)Nc2cccc(Br)c2)cc1)c1ccc(O)c(O)c1 [N-(4-(3-Bromophenylsulfamoyl)phenyl)3,4-dihydroxybenzamide (11x)]	45 µM	15 µM
O=C(Nc1ccc(S(=O)(=O)Nc2cccc(Br)c2)cc1)c1cc(O)c(O)c(O)c1 [N-(4-(3-Bromophenylsulfamoyl)phenyl)galloylamide (9f)]	2 µM	0.7 µM
CC(=O)Oc1cc(C(=O)Nc2ccc(S(=O)(=O)Nc3cccc(Cl)c3F)cc2)cc(OC(C)=O)c1OC(C)=O [N-(4-(3-chloro-2-fluorophenylsulfamoyl)phenyl)-3,4,5-triacetoxybenzamide (8l)]	5 µM	2 µM
O=C(Nc1ccc(S(=O)(=O)Nc2cccc(Cl)c2F)cc1)c1cc(O)c(O)c(O)c1 [N-(4-(3-chloro-2-fluorophenylsulfamoyl)phenyl)galloylamide (9l)]	1.3 µM	0.8 µM
O=C(Nc1ccc(S(=O)(=O)Nc2ccc(Br)cc2)cc1)c1cc(O)c(O)c(O)c1 [N-(4-(4-Bromophenylsulfamoyl)phenyl)galloylamide (9e)]	3 µM	0.7 µM
CCCCc1ccc(NS(=O)(=O)c2ccc(NC(=O)c3cc(O)c(O)c(O)c3)cc2)cc1 [N-(4-(4-Butylphenylsulfamoyl)phenyl)galloylamide (9i)]	3 µM	2.5 µM
O=C(Nc1ccc(S(=O)(=O)NCc2ccc(Cl)cc2)cc1)c1cc(O)c(O)c(O)c1 [N-(4-(4-Chlorobenzylsulfamoyl)phenyl)galloylamide (9o)]	5 µM	2 µM
O=C(Nc1ccc(S(=O)(=O)Nc2ccc(Cl)cc2)cc1)c1cc(O)c(O)c(O)c1 [N-(4-(4-Chlorophenylsulfamoyl)phenyl)galloylamide (9n)]	6 µM	2 µM
CCOc1ccc(NS(=O)(=O)c2ccc(NC(=O)c3cc(O)c(O)c(O)c3)cc2)cc1 [N-(4-(4-Ethoxylphenylsulfamoyl)phenyl)galloylamide (9j)]	6 µM	1.3 µM
O=C(Nc1ccc(S(=O)(=O)NCc2ccc(F)cc2)cc1)c1cc(O)c(O)c(O)c1 [N-(4-(4-Fluorobenzylsulfamoyl)phenyl)galloylamide (9d)]	7 µM	2 µM
O=C(Nc1ccc(S(=O)(=O)Nc2ccc(F)cc2)cc1)c1cc(O)c(O)c(O)c1 [N-(4-(4-Fluorophenylsulfamoyl)phenyl)galloylamide (9a)]	7 µM	0.9 µM
COc1ccc(NS(=O)(=O)c2ccc(NC(=O)c3cc(O)c(O)c(O)c3)cc2)cc1 [N-(4-(4-Methoxylphenylsulfamoyl)phenyl)galloylamide (9q)]	5 µM	4.5 µM
O=C(Nc1ccc(S(=O)(=O)Nc2ccc([N+](=O)[O-])cc2)cc1)c1cc(O)c(O)c(O)c1 [N-(4-(4-Nitrophenylsulfamoyl)phenyl)galloylamide (9r)]	4 µM	3 µM
